Where two headings read alike, the source gives them in different places. Values belong to the molecule of their own block, whether it stands above or below them.
Biological target: T1, human APJ receptor (Homo sapiens, UniProt P35414)
T1 construct: expressed in transfected cells
T1 sequence (P35414 1-380): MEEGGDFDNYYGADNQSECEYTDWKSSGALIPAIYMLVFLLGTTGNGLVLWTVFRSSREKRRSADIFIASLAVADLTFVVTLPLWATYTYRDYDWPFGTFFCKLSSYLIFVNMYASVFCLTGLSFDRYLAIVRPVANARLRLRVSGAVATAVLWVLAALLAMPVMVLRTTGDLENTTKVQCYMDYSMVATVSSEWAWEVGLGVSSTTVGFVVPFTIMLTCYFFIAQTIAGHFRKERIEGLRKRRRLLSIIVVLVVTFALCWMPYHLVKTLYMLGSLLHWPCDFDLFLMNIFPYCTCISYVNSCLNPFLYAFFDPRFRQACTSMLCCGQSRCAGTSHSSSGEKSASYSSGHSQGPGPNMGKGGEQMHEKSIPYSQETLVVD
Assay: Intracellular cAMP accumulation assay (APJ hcAMP, HTRF)
Type: cell-based
Conditions: HEK293 cells stably expressing human APJ, forskolin-stimulated cAMP, read-out: Human cAMP EC50
Method in brief: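 Inhibition of forskolin (2 μM)-stimulated cAMP, with […], was measured after 30 min compound exposure at room temperature in stably transfected HEK293 cells. HTRF ratios were converted to cAMP via standard curve, and EC50 values came from variable-slope sigmoidal concentration-response fitting.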

- EC50 (Table 4): 0.01 to 10 nM
SMILES: CCCCc1nc(O)c(C(=O)N2CCN(C(=O)c3cccc(Cl)c3Cl)CC2)c(O)c1-c1c(OC)cccc1OC [Example 153, 6-butyl-3-[4-(2,3-dichlorobenzoyl)piperazine-1-carbonyl]-5-(2,6-dimethoxyphenyl)pyridine-2,4-diol]

- EC50 (Table 4): 0.01 to 10 nM
SMILES: CCCCc1nc(O)c(C(=O)N2CCN(Cc3cccc(F)c3F)CC2)c(O)c1-c1cccc(OC)c1OC [Example 154, 6-butyl-3-{4-[(2,3-difluorophenyl)methyl]piperazine-1-carbonyl}-5-(2,3-dimethoxyphenyl)pyridine-2,4-diol]

More lines, now with the values behind:

SMILES: CCCCc1nc(O)c(C(=O)N2CCC(c3ncc(F)cc3F)C2)c(O)c1-c1cccc(C(=O)NC(C)C)c1 (stereo not shown) [Example 145, 3-{2-butyl-5-[3-(3,5-difluoropyridin-2-yl)pyrrolidine-1-carbonyl]-4,6-dihydroxypyridin-3-yl}-N-(propan-2-yl)benzamide]
- EC50 (Table 7): 0.01 to 10 nM

SMILES: CCCCc1nc(O)c(C(=O)N2CCC(c3ncc(F)cc3F)C2)c(O)c1-c1cccc(C(=O)NC(C)C)c1 (stereo not shown) [Example 146, 3-{2-butyl-5-[3-(3,5-difluoropyridin-2-yl)pyrrolidine-1-carbonyl]-4,6-dihydroxypyridin-3-yl}-N-(propan-2-yl)benzamide]
- EC50 (Table 7): 0.01 to 10 nM

SMILES: CCCCc1nc(O)c(C(=O)N2CCC(c3ncc(F)cc3F)C2)c(O)c1-c1cccc(CO)c1 (stereo not shown) [Example 147, 6-butyl-3-[3-(3,5-difluoropyridin-2-yl)pyrrolidine-1-carbonyl]-5-[3-(hydroxymethyl)phenyl]pyridine-2,4-diol]
- EC50 (Table 7): 0.01 to 10 nM

SMILES: CCNCc1nc(O)c(C(=O)N2CCC(c3ccccc3F)C2)c(O)c1-c1c(OC)cccc1OC (stereo not shown) [Example 150, 5-(2,6-dimethoxyphenyl)-6-[(ethylamino)methyl]-3-[3-(2-fluorophenyl)pyrrolidine-1-carbonyl]pyridine-2,4-diol]
- EC50 (Table 8): 10 to 100 nM

SMILES: CCNCc1nc(O)c(C(=O)N2CCC(c3ccccc3F)C2)c(O)c1-c1c(OC)cccc1OC (stereo not shown) [Example 151, 5-(2,6-dimethoxyphenyl)-6-[(ethylamino)methyl]-3-[3-(2-fluorophenyl)pyrrolidine-1-carbonyl]pyridine-2,4-diol]
- EC50 (Table 8): 10 to 100 nM

Reference: patent US10392347B2, “2,4-dihydroxy-nicotinamides as APJ agonists” (BRISTOL-MYERS SQUIBB COMPANY, priority 2015, dated 2019)
